The values below come from US20170066759A1, “AROMATIC 5-MEMBERED HETEROCYCLIC DERIVATIVE HAVING TRPV4-INHIBITING ACTIVITY” (Shionogi & Co., Ltd., priority 2012, published 2017).

For one series, the target named is T1, CYP2D6 (Homo sapiens, UniProt P10635).
T1 construct: enzyme, pooled human hepatic microsome 0.2 mg protein/mL; from tissue; host or cells: pooled human liver microsomes
Put plainly: Test Example 6: CYP inhibition test, dextromethorphan O-demethylation (CYP2D6). In kind it is in vitro ADME. As to conditions: pooled human hepatic microsome, 5 μmol/L dextromethorphan. Here is the method: Test Example 6 CYP Inhibition Test […] The reaction conditions were as follows: substrate, 0.5 μmol/L ethoxyresorufin (CYP1A2), 100 μmol/L tolbutamide (CYP2C9), 50 μmol/L S-mephenytoin (CYP2C19), 5 μmol/L dextromethorphan (CYP2D6), 1 μmol/L terfenedine (CYP3A4); reaction time, 15 minutes; reaction temperature, 37° C.; enzyme, pooled human hepatic microsome 0.2 mg protein/mL; concentration of the compound of the present invention, 1, 5, 10, 20 μmol/L (four points). Each five kinds of substrates, human hepatic microsome, and the compound of the present invention in 50 mmol/L Hepes buffer as a reaction solution were added to a 96-well plate at the composition as described above. NADPH, as a cofactor was added to initiate metabolism reactions as markers and, after the incubation at 37° C. for 15 minutes, a methanol/acetonitrile=1/1 (v/v) solution was added to stop the reaction. After the centrifugation at 3000 rpm for 15 minutes, resorufin (CYP1A2 metabolite) in the supernatant was quantified by a fluorescent multilabel counter and toltributamide hydroxide (CYP2[…] metabolite), mephenytoin 4' hydroxide (CYP2C19 metabolite), […], and terfenadine alcohol (CYP3A4 metabolite) were quantified by LC/MS/MS. Addition of only DMSO being a solvent dissolving the compound of the present invention to a reaction system was adopted as a control (100%). Remaining activity (%) was calculated at each concentration of the compound of the present invention added as the solution and IC50 was calculated by reverse presumption by a logistic model using a concentration and an inhibition rate.

Series [1] in a line: Test Example 11: BA test (oral absorbability). The class given is in vivo. Conditions: plasma; Mouse, oral administration 1 mg/kg. Here is the method: Materials and methods for experiments to evaluate oral absorbability
(1) Experimental animals: rats or mice were used. (2) Breeding condition: rats or mice were allowed free access to solid feed and sterilized tap water (3) Setting of dosage and grouping: Oral administration and intravenous administration were performed with the predetermined dosage. Grouping was set as below. (Dosage varied depending on each compound)
Oral administration 1 to 30 mg/kg (n=2 to 3)
Intravenous administration 0.5 to 10 mg/kg (n=2 to 3)
(4) Preparation of administered liquid: Oral administration was performed using a solution or a suspension. Intravenous administration was performed after solubilization. (5) Method of Administration: In oral administration, compulsory administration to the stomach was conducted using an oral sonde. […] (6) Evaluation items: Blood was chronologically collected, and then concentration of a compound of the present invention in blood plasma was measured using a LC/MS/MS. […]
(7) Statistical analysis: With regard to a shift in plasma concentration of the compound of the present invention, the area under the plasma concentration-time curve (AUC) was calculated using a nonlinear least-squares program, WinNonlin (a registered trademark). Bioavailability (BA) was calculated from the AUCs of the oral administration group and the intravenous administration group. […]

Series [2] has as its system Salmonella typhimurium TA98 strain, TA100 strain. The experiment in a line: Test Example 7: FAT test (mutagenicity). As to conditions: TA98 and TA100 strains, non-metabolism activating and metabolism activating conditions. On the set-up: key: (−) means that mutagenicity is negative; (+) is positive. The method, then: Mutagenicity of a compound of the present invention was evaluated.
[…] of freezing-stored rat typhoid bacillus (Salmonella typhimurium TA98 strain, TA100 strain) was inoculated on 10 mL of a liquid nutrient medium (2.5% Oxoid nutrient broth No. 2), and this was cultured before shaking at 37° C. for 10 hours. 9 mL of a bacterial solution of the TA98 strain was centrifuged (2000×g, 10 minutes) to remove a culturing solution. The bacteria was suspended in 9 mL of a Micro F buffer (K2HPO4: 3.5 g/L, KH2PO4: 1 g/L, (NH4)2SO4: 1 g/L, trisodium citrate dehydrate: 0.25 g/L, MgSO4*7H2O: 0.1 g/L), the suspension was added to 110 mL of an Exposure medium (Micro F buffer containing Biotin: 8 μg/mL, histidine: 0.2 μg/mL, glucose: 8 mg/mL). The TA100 strain was added to 120 mL of the Exposure medium relative to 3.16 mL of the bacterial solution to prepare a test bacterial solution. […] Since a well containing a bacterium which has obtained the proliferation ability by mutation of an amino acid (histidine) synthesizing enzyme gene turns from purple to yellow due to a pH change, the bacterium proliferation well which has turned to yellow in 48 wells per dose was counted, and was assessed by comparing with a negative control group. […]

T1 sequence (P10635 whole entry): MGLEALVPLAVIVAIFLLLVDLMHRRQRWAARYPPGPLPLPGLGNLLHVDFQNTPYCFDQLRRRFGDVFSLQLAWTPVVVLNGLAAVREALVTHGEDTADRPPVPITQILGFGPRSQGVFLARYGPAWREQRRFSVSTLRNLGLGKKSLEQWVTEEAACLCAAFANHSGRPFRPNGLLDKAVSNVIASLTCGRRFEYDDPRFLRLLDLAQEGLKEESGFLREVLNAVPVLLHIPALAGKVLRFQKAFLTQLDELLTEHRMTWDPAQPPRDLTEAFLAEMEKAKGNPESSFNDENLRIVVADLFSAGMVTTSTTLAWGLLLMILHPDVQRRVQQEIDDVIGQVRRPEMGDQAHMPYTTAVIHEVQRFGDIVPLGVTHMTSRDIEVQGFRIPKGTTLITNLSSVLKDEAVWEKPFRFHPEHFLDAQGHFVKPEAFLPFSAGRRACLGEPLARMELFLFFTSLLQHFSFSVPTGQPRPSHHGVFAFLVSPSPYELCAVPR

Regarding `Cc1nc(C)c(-c2csc(NC(=O)Cc3ccc(S(C)(=O)=O)cc3)n2)s1` [Compound I-17], at CYP2D6, the IC50 – broadly, the midpoint of a concentration-inhibition curve – was over 20 µM. Also, in series [1], the bioavailability (in general, dose-corrected exposure relative to a reference, in per cent) was determined as 54.6%. As to `Cc1nc(C)c(-c2csc(NC(=O)C3CCC(F)(F)C3)n2)s1` (stereo not drawn) [Compound I-18], the “Mutagenicity (FAT test)” value in series [2] was “(−)”.
